Measurements taken from a melting point compilation (Tetko et al.; mined from patent text by program, amines drawn as free bases though some values may be those of a salt).

Row | SMILES | melting point [°C]
1 | Cn1c(COc2ccc(CC3SC(=O)NC3=O)cc2)nc2ncccc21 (configuration not stated) | 231 to 232
2 | O=C1NC(CO)Cc2c[nH]c3cccc1c23 (configuration not stated) | 186 to 187
3 | CS(=O)(=O)c1cccc(-c2ccccc2[N+](=O)[O-])c1 | 124 to 125
4 | CCOC(=O)C1=C(C)Nc2nc(N(C)C)nc(N(C)C)c2C1c1cccc([N+](=O)[O-])c1 (configuration not stated) | 149
5 | COC(=O)c1cc(Cl)c2c(c1OC)CCCN2 | 105 to 108
6 | NC(=O)c1nc(Cl)cc(N)c1Cl | 240 to 241
7 | CC(C)[C@]1(CCc2ccsc2)CC(O)=CC(=O)O1 | 117 to 123
8 | Cc1cccc(-c2nc3cccnn3c2-c2ccnc(NC3CCCC3)c2)c1 | 130 to 131
9 | COc1nc2cc(Br)cc(C=O)c2nc1OC | 179 to 182
10 | Cn1c(C(F)(F)F)cc(=O)n(-c2cc(OCCC3OCCCO3)c(Cl)cc2F)c1=O | 128 to 130
11 | COc1cc(-c2cc(N)n(C)c3nc(N)nc(=O)c2-3)cc(OC)c1OC | > 300
12 | CNC(=O)c1cc(Br)cc(I)c1 | 205
13 | CC(=O)OC1CCCc2cnc3cc(OCc4ccccc4)ccc3c21 (configuration not stated) | 70 to 72
14 | N#Cc1ccc(-c2sc(N3C(=O)c4ccccc4C3=O)c(C(=O)c3ccc(Cl)cc3)c2CBr)cc1 | 211 to 214
15 | CC(=O)Nc1ccc(N=C=S)cc1O | 68 to 70
16 | N#Cc1cc(Cl)c(-n2ncc(-c3nc(C#N)c(C#N)[nH]3)n2)c(Cl)c1 | 183 to 185
17 | Cc1c(C(=O)c2ccc(Cl)cc2)oc2cccc(O)c12 | 238 to 241
18 | N#CC=Cc1ccc(C=Cc2ccc(Br)cc2)cc1 | 258
19 | CCC(C#N)Oc1nc2cc(OC)cc(OC)c2cc1-c1ccc(OC)cc1 (configuration not stated) | 89 to 90
20 | CCOC(=O)c1ccc(-c2cnc3c(c2)N(Cc2cc(F)ccc2F)C(=O)CN3)cc1 | 201 to 203
21 | Cn1c(C(=O)O)c(-c2ccc(F)cc2)c2ccsc2c1=O | 205
22 | O=Cc1csc(N2CCSCC2)n1 | 69 to 71

Row | SMILES | melting point [°C]
23 | Cc1ncncc1NC(=O)c1ccc(-n2nc(C(F)(F)F)cc2C2CC2)c(F)c1 | 150 to 152
24 | COc1ccc(CNc2nc(-c3ccco3)c3ncn(Cc4ccc(OC)cc4)c3n2)cc1 | 153 to 154
25 | CC(C)(C)OC(=O)c1ncn2c1c(C(=O)N1CCCC1)cc1ccccc12 | 216 to 218
26 | c1cc(-c2cc3nccnc3[nH]2)cc(C2OCCCO2)c1 | 205 to 206
27 | Nc1cc(C(=O)c2ccc(C(=O)c3ccc(F)c(N)c3)cc2)ccc1F | 220 to 221
28 | COC(=O)c1cc(N=[N+]=[N-])ccc1Nc1ccccc1 | 64 to 65
29 | Cc1ccc(C(C)(C)C)c(O)c1-c1nc2cc(C#N)ccc2[nH]1 | 212 to 215
30 | COc1c(C)cc(C)cc1CNC(=O)CCl | 124
31 | S=C1CSc2ccccc2CN1 | 215 to 219
32 | COc1ccc(CO)nc1I | 106 to 108
33 | COc1ccc(COc2cccc(C=O)c2)cc1 | 78
34 | Nc1nc(N)c2c(n1)CCC(c1ccccc1)C2 (configuration not stated) | 223 to 226
35 | OCc1cc2c(Cl)ccc(Br)c2s1 | 141 to 143
36 | COc1ccc(-n2c(C)nc3cnccc32)cc1OC1CCCC1 | 144 to 145
37 | Cn1cc(-c2cccc(C(F)(F)F)c2)c(=O)c(-c2cccs2)c1 | 185 to 186
38 | CCN1C(=O)COc2ccc(-c3sc(N)nc3-c3cccc(C)n3)cc21 | 228 to 230
39 | O=C(NCCc1ccccc1)c1ccccc1-c1ccccc1CN1C(=O)c2ccccc2C1=O | 156
40 | Cc1nc(-c2ccc(C(F)(F)F)cc2)oc1COc1ccc(/C=C/C(=O)O)cc1 | 193
41 | N#Cc1cncnc1N1CCc2ccccc2CC1 | 148 to 150
42 | COc1ccc(N2C(=O)C3=C(SCCS3)C2OC(=O)N2CCN(C)CC2)nn1 (configuration not stated) | 196 to 198
43 | CN(C)Cc1nnc2n1-c1ccccc1C(c1ccccc1Cl)=NC2 | 143 to 145

Results, then the compound that gave them:

Row | melting point [°C] | SMILES
44 | 108 to 110 | CN(CCCNC(=O)c1c2ccccc2nc2ccccc12)CCCNC(=O)c1c2ccccc2nc2c1[nH]c1ccccc12
45 | 120 to 122 | CC(C)C(=O)N[C@@H](CS)C(=O)NCCSC(=O)C(C)(C)C
46 | 278 to 280 | CCC(=O)N1CC(=O)C2=C(C1)CN1NC(N3CCOCC3)=NC1=N2
47 | 103 to 104 | CCOC(=O)COc1cc2c(c(O)c1Cl)C(=O)CC1(CCCCC1)O2
48 | 100 to 106 | CCOC(=O)C(Cc1ccc(OCC=C(C)c2ccc(-c3ccc(C(C)=CCOc4ccc(CC(OCC)C(=O)OCC)cc4)cc3)cc2)cc1)OCC (configuration not stated)
49 | 97 to 98 | CCCCCCCCCCC(=O)C(=O)N[C@@H](CCC(=O)O)C(=O)O
50 | 73 | O=C(c1ccc(Cl)cc1)C(Br)CCCl (configuration not stated)
51 | 146 to 148 | CCCC=COC1OC(CO)C(O)C(O)C1NC(C)=O (configuration not stated)
52 | 135 | ClCCCOc1ccc(OCCCCl)c(Cl)c1
53 | 145 | CCN(CC)c1ccc(C(O)C#Cc2ccc(C(=O)O)cc2)cc1C(C)C (configuration not stated)
54 | 156 to 158 | CCOP(=O)(CC(Nc1cccnc1)c1cc(C)c(O)c(OC)c1)OCC (configuration not stated)
55 | 180 | CC1(c2cccc(NS(C)(=O)=O)c2)C2CN(C(=O)CCc3ccsc3)CC21 (configuration not stated)
56 | 86 to 87 | Cc1sc2c(c1C(=O)CCCl)NC(=O)CCC2
57 | 93 to 94 | CCOC(=O)CC(=O)c1ccc(NC(C)=O)cc1
58 | 169 to 172 | Cc1ccc(S(=O)(=O)NCCc2ccc(O)cc2)cc1
59 | 56 to 57 | CCOP(=O)(OCC)C(CC(NC(=O)OC(C)(C)C)C(=O)c1ccccc1)P(=O)(OCC)OCC (configuration not stated)
60 | 125 to 132 | O=C(O)CCCCNC(=O)NCCCCC1CCSS1 (configuration not stated)
61 | 91 to 93 | Cc1cc(SC(C)C)c(NC(=O)CCCCCCSc2nc3c(C)c(Cl)cc(C(C)C)c3o2)c(SC(C)C)n1
62 | 134 to 136 | COc1ccc(C)cc1NC(=O)Nc1ccc(N2CCN(C(=O)Nc3ccc(OCC(O)CO)cc3Cl)CC2)cc1 (configuration not stated)
63 | 175 to 176 | CCOC(=O)C1=C(N)NC(N)=C(C(=O)OCC)C1c1cccc([N+](=O)[O-])c1
64 | 118 to 119 | COC(=O)c1cc2c(OC[C@@H](O)CN3CCC(c4ccc5ccccc5c4)CC3)cccc2o1
65 | 177 to 179 | CC(=O)Nc1ccc(OCC2CCN(CC(O)COc3cccc4c3CCN4C=O)CC2)cc1 (configuration not stated)
66 | 125 to 126 | CC(C)(C)c1cc(C(=O)C(=O)O)cc(C(C)(C)C)c1O
67 | 101 to 108 | CCN(CC)c1ccc(/C=C/C(=O)CC(=O)/C=C/c2ccc(OC)c(O)c2)c(O)c1
68 | 117 to 118 | CCCCC(=O)NC1(c2ccc(C(C)C)cc2OC(=O)CCCC)C(=O)c2ccccc2C1=O
69 | 151 to 152 | CCOC(=O)C1=C(C)NC(C)=C(C(=O)OCC)C1c1ccccc1F
70 | 158 to 160 | CCCc1ccccc1Sc1c(O)cc(-c2ccccc2)oc1=O
71 | 152 | CCOC(=O)c1cn(CC)c2nc(N3CCN(Cc4ccccc4)CC3)ncc2c1=O
72 | 57 to 60 | COC(=O)Cc1ccc(OCCNC(=O)C2Cc3ccccc3N2S(=O)(=O)c2ccc(-c3cc(C)ccc3OC)cc2)cc1 (configuration not stated)
